Experimental data reported in PubChem BioAssay (NCI).
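All cell lines were grown in 96-well plates and treated with compound for 48 hours. GI50: concentration for 50% inhibition of growth. TGI is the concentration that stops growth completely.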

Tests used:
Assay in all cases: inhibition of tumour cell growth, NCI panel, 48 h
MCF7 breast = tested on: MCF7 breast
HCT-15 colon = tested on: HCT-15 colon
U251 CNS = tested on: U251 CNS
OVCAR-5 ovarian = tested on: OVCAR-5 ovarian
SR leukemia = tested on: SR leukemia
SF-295 CNS = tested on: SF-295 CNS
LOX IMVI melanoma = tested on: LOX IMVI melanoma
SK-MEL-5 melanoma = tested on: SK-MEL-5 melanoma
MDA-MB-231 breast = tested on: MDA-MB-231 breast
ACHN renal = tested on: ACHN renal
UO-31 renal = tested on: UO-31 renal
SN12C renal = tested on: SN12C renal
NCI-H226 lung = tested on: NCI-H226 lung
SK-MEL-2 melanoma = tested on: SK-MEL-2 melanoma
CAKI-1 renal = tested on: CAKI-1 renal
NCI-H460 lung = tested on: NCI-H460 lung
IGROV1 ovarian = tested on: IGROV1 ovarian
SK-OV-3 ovarian = tested on: SK-OV-3 ovarian
SF-539 CNS = tested on: SF-539 CNS
SF-268 CNS = tested on: SF-268 CNS
UACC-257 melanoma = tested on: UACC-257 melanoma
RPMI-8226 leukemia = tested on: RPMI-8226 leukemia
HS 578T breast = tested on: HS 578T breast
COLO 205 colon = tested on: COLO 205 colon
HT29 colon = tested on: HT29 colon
CCRF-CEM leukemia = tested on: CCRF-CEM leukemia
A549 NSCLC = tested on: A549 NSCLC
786-0 renal = tested on: 786-0 renal
NCI-H23 lung = tested on: NCI-H23 lung
TK-10 renal = tested on: TK-10 renal
M14 melanoma = tested on: M14 melanoma
A498 renal = tested on: A498 renal
RXF 393 renal = tested on: RXF 393 renal
PC-3 prostate = tested on: PC-3 prostate
DU-145 prostate = tested on: DU-145 prostate
K-562 leukemia = tested on: K-562 leukemia
SNB-75 CNS = tested on: SNB-75 CNS
SK-MEL-28 melanoma = tested on: SK-MEL-28 melanoma
HCC-2998 colon = tested on: HCC-2998 colon
NCI/ADR-RES ovarian = tested on: NCI/ADR-RES ovarian
OVCAR-8 ovarian = tested on: OVCAR-8 ovarian
KM12 colon = tested on: KM12 colon
BT-549 breast = tested on: BT-549 breast
MDA-MB-435 = tested on: MDA-MB-435
SW-620 colon = tested on: SW-620 colon
SNB-19 CNS = tested on: SNB-19 CNS
MOLT-4 leukemia = tested on: MOLT-4 leukemia
EKVX NSCLC = tested on: EKVX NSCLC
MALME-3M melanoma = tested on: MALME-3M melanoma
OVCAR-3 ovarian = tested on: OVCAR-3 ovarian
T-47D breast = tested on: T-47D breast
NCI-H522 lung = tested on: NCI-H522 lung
HCT-116 colon = tested on: HCT-116 colon
HOP-92 NSCLC = tested on: HOP-92 NSCLC
HOP-62 NSCLC = tested on: HOP-62 NSCLC
UACC-62 melanoma = tested on: UACC-62 melanoma
OVCAR-4 ovarian = tested on: OVCAR-4 ovarian

With `COC(=O)CCC1=C(C)c2cc3[n-]c(cc4nc(cc5[n-]c(cc1n2)c(CCC(=O)OC)c5C)C=C4C)cc3C.[Cd+2]` as the compound, how does the GI50 (MCF7 breast) read?
The GI50 was 2.66 µM.

What about the TGI (MCF7 breast) of the same compound?
The TGI was 11.9 µM.

What about the GI50 (HCT-15 colon) of the same compound?
The GI50 was 11.8 µM.

What about the TGI (HCT-15 colon) of the same compound?
Its TGI is greater than 55 µM.

What about the GI50 (U251 CNS) of the same compound?
Its GI50 is 2.82 µM.

And the TGI (U251 CNS)?
Its TGI is 9.98 µM.

What about the GI50 (OVCAR-5 ovarian) of the same compound?
The GI50 was 16.8 µM.

And the TGI (OVCAR-5 ovarian)?
The TGI was 39.7 µM.

And the GI50 (SR leukemia)?
The GI50 was 3.16 µM.

What about the TGI (SR leukemia) of the same compound?
The TGI was 8.91 µM.

What about the GI50 (SF-295 CNS) of the same compound?
The GI50 was 17.5 µM.

And the TGI (SF-295 CNS)?
Its TGI is 77 µM.

And the GI50 (LOX IMVI melanoma)?
Its GI50 is 13.1 µM.

What about the TGI (LOX IMVI melanoma) of the same compound?
The TGI was greater than 74.6 µM.

What about the GI50 (SK-MEL-5 melanoma) of the same compound?
Its GI50 is 1.14 µM.

And the TGI (SK-MEL-5 melanoma)?
The TGI was 2.83 µM.

What about the GI50 (MDA-MB-231 breast) of the same compound?
The GI50 was 7.28 µM.

And the TGI (MDA-MB-231 breast)?
Its TGI is 31.4 µM.

What about the GI50 (ACHN renal) of the same compound?
The GI50 was 16.2 µM.

And the TGI (ACHN renal)?
Its TGI is 38.8 µM.

And the GI50 (UO-31 renal)?
Its GI50 is 21.7 µM.

What about the TGI (UO-31 renal) of the same compound?
Its TGI is 65.7 µM.

And the GI50 (SN12C renal)?
Its GI50 is 19.1 µM.

And the TGI (SN12C renal)?
Its TGI is 58 µM.

And the GI50 (NCI-H226 lung)?
The GI50 was 1.52 µM.

What about the TGI (NCI-H226 lung) of the same compound?
Its TGI is 4.73 µM.

And the GI50 (SK-MEL-2 melanoma)?
Its GI50 is 5.37 µM.

What about the TGI (SK-MEL-2 melanoma) of the same compound?
Its TGI is 19.1 µM.

What about the GI50 (CAKI-1 renal) of the same compound?
Its GI50 is 12.4 µM.

And the TGI (CAKI-1 renal)?
The TGI was 38.1 µM.

And the GI50 (NCI-H460 lung)?
Its GI50 is 0.868 µM.

What about the TGI (NCI-H460 lung) of the same compound?
The TGI was 3.2 µM.

What about the GI50 (IGROV1 ovarian) of the same compound?
The GI50 was 3.03 µM.

And the TGI (IGROV1 ovarian)?
Its TGI is 8.82 µM.

What about the GI50 (SK-OV-3 ovarian) of the same compound?
The GI50 was 7.4 µM.

And the TGI (SK-OV-3 ovarian)?
Its TGI is 27.7 µM.

And the GI50 (SF-539 CNS)?
Its GI50 is 4.39 µM.

And the TGI (SF-539 CNS)?
The TGI was 15.2 µM.

And the GI50 (SF-268 CNS)?
The GI50 was 3.14 µM.

And the TGI (SF-268 CNS)?
The TGI was 14.9 µM.

What about the GI50 (UACC-257 melanoma) of the same compound?
The GI50 was 4.06 µM.

What about the TGI (UACC-257 melanoma) of the same compound?
The TGI was 18.3 µM.

What about the GI50 (RPMI-8226 leukemia) of the same compound?
The GI50 was 4.23 µM.

What about the TGI (RPMI-8226 leukemia) of the same compound?
Its TGI is greater than 29.5 µM.

What about the GI50 (HS 578T breast) of the same compound?
Its GI50 is 5.73 µM.

What about the TGI (HS 578T breast) of the same compound?
The TGI was greater than 100 µM.

And the GI50 (COLO 205 colon)?
The GI50 was 2.64 µM.

And the TGI (COLO 205 colon)?
The TGI was 6.9 µM.

And the GI50 (HT29 colon)?
Its GI50 is 6.74 µM.

What about the TGI (HT29 colon) of the same compound?
The TGI was 26.3 µM.

What about the GI50 (CCRF-CEM leukemia) of the same compound?
The GI50 was 3.34 µM.

What about the TGI (CCRF-CEM leukemia) of the same compound?
Its TGI is greater than 56.4 µM.

And the GI50 (A549 NSCLC)?
Its GI50 is 4.24 µM.

And the TGI (A549 NSCLC)?
Its TGI is 22.9 µM.

And the GI50 (786-0 renal)?
Its GI50 is 11.3 µM.

What about the TGI (786-0 renal) of the same compound?
Its TGI is 39.3 µM.

And the GI50 (NCI-H23 lung)?
The GI50 was 3.03 µM.

What about the TGI (NCI-H23 lung) of the same compound?
Its TGI is 16.7 µM.

And the GI50 (TK-10 renal)?
Its GI50 is 5.25 µM.

And the TGI (TK-10 renal)?
The TGI was 13.6 µM.

And the GI50 (M14 melanoma)?
The GI50 was 5.54 µM.

What about the TGI (M14 melanoma) of the same compound?
The TGI was 22.8 µM.

What about the GI50 (A498 renal) of the same compound?
The GI50 was 9.01 µM.

And the TGI (A498 renal)?
The TGI was 26.3 µM.

And the GI50 (RXF 393 renal)?
Its GI50 is 2.88 µM.

And the TGI (RXF 393 renal)?
Its TGI is 10.9 µM.

And the GI50 (PC-3 prostate)?
Its GI50 is 4.68 µM.

What about the TGI (PC-3 prostate) of the same compound?
Its TGI is 29.3 µM.

And the GI50 (DU-145 prostate)?
The GI50 was 4.5 µM.

And the TGI (DU-145 prostate)?
Its TGI is 10.4 µM.

What about the GI50 (K-562 leukemia) of the same compound?
The GI50 was 3.32 µM.

And the TGI (K-562 leukemia)?
The TGI was greater than 30.8 µM.

What about the GI50 (SNB-75 CNS) of the same compound?
The GI50 was 6.62 µM.

And the TGI (SNB-75 CNS)?
The TGI was 33.8 µM.

What about the GI50 (SK-MEL-28 melanoma) of the same compound?
Its GI50 is 4.69 µM.

What about the TGI (SK-MEL-28 melanoma) of the same compound?
The TGI was 21.2 µM.

And the GI50 (HCC-2998 colon)?
The GI50 was 22.2 µM.

And the TGI (HCC-2998 colon)?
Its TGI is greater than 68.1 µM.

And the GI50 (NCI/ADR-RES ovarian)?
Its GI50 is 39.8 µM.

What about the TGI (NCI/ADR-RES ovarian) of the same compound?
Its TGI is greater than 100 µM.

And the GI50 (OVCAR-8 ovarian)?
Its GI50 is 9.95 µM.

What about the TGI (OVCAR-8 ovarian) of the same compound?
Its TGI is 75.4 µM.

What about the GI50 (KM12 colon) of the same compound?
Its GI50 is 3.46 µM.

And the TGI (KM12 colon)?
Its TGI is 13.6 µM.

What about the GI50 (BT-549 breast) of the same compound?
The GI50 was 0.925 µM.

What about the TGI (BT-549 breast) of the same compound?
Its TGI is 2.39 µM.

What about the GI50 (MDA-MB-435) of the same compound?
The GI50 was 2.99 µM.

And the TGI (MDA-MB-435)?
The TGI was 19.6 µM.

And the GI50 (SW-620 colon)?
The GI50 was 4.44 µM.

What about the TGI (SW-620 colon) of the same compound?
Its TGI is 18.4 µM.

And the GI50 (SNB-19 CNS)?
Its GI50 is 25.6 µM.

What about the TGI (SNB-19 CNS) of the same compound?
Its TGI is greater than 100 µM.

And the GI50 (MOLT-4 leukemia)?
Its GI50 is 5.08 µM.

And the TGI (MOLT-4 leukemia)?
Its TGI is greater than 63.6 µM.

And the GI50 (EKVX NSCLC)?
Its GI50 is 5.89 µM.

And the TGI (EKVX NSCLC)?
Its TGI is greater than 52.2 µM.

And the GI50 (MALME-3M melanoma)?
The GI50 was 2.55 µM.

What about the TGI (MALME-3M melanoma) of the same compound?
The TGI was 7.58 µM.

What about the GI50 (OVCAR-3 ovarian) of the same compound?
The GI50 was 1.73 µM.

And the TGI (OVCAR-3 ovarian)?
The TGI was 3.81 µM.

What about the GI50 (T-47D breast) of the same compound?
Its GI50 is 2.47 µM.

And the TGI (T-47D breast)?
The TGI was 6.95 µM.

What about the GI50 (NCI-H522 lung) of the same compound?
The GI50 was 0.265 µM.

What about the TGI (NCI-H522 lung) of the same compound?
Its TGI is 0.754 µM.

And the GI50 (HCT-116 colon)?
The GI50 was 8.42 µM.

And the TGI (HCT-116 colon)?
The TGI was 25.3 µM.

What about the GI50 (HOP-92 NSCLC) of the same compound?
Its GI50 is 16.7 µM.

And the TGI (HOP-92 NSCLC)?
The TGI was 40 µM.

What about the GI50 (HOP-62 NSCLC) of the same compound?
The GI50 was 25.4 µM.

What about the TGI (HOP-62 NSCLC) of the same compound?
Its TGI is 76.2 µM.

What about the GI50 (UACC-62 melanoma) of the same compound?
The GI50 was 2 µM.

And the TGI (UACC-62 melanoma)?
The TGI was 5.19 µM.

What about the GI50 (OVCAR-4 ovarian) of the same compound?
Its GI50 is 2.35 µM.

And the TGI (OVCAR-4 ovarian)?
Its TGI is 7.14 µM.
